# Measurements reported in publication PMC4380987 (Protein Science : A Publication of the Protein Society, 2014).
# Molecular target: Edmanase (engineered cruzain) (Trypanosoma cruzi, UniProt P25779, C147G/G187S/A260C/L282Y)
# Format: biochemical
smiles,measurement,value
"CC(=O)c1nc(Nc2ccccc2)sc1C [1-(2-anilino-5-methyl-1,3-thiazol-4-yl)-ethanone]",IC50,1140 µM
